Measured values as given in patent publication US20060069132A1, “Azolecarboxamide herbicides” (priority 2004, published 2006).

Tests used:
[1] = system: small flower umbrella sedge; experiment: Test B flooded paddy test; format: in vivo, Cyperus difformis; conditions: 1000 g ai/ha, scale 0 to 100 (0 no effect, 100 complete control)
Summary of the method: (§1)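 Read-out: visual comparison with controls, scored 0 to 100, where 100 means complete control and 0 no effect. Formulated chemicals were applied postemergence to plants 2–18 cm tall (1- to 4-leaf), or to flooded-paddy plants at the 2-leaf stage, then held 13 to 15 days under glass.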

morningglory = experiment: Test B pre-/postemergence herbicide test; format: in vivo, Ipomoea coccinea; conditions: for Morningglory plant response rating (0 to 100 scale) / Plant response rating, Morningglory: 0 = no effect, 100 = complete control, preemergence; for Morningglory plant response rating: postemergence
Summary of the method: (§2)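 Pre: seeds sown, then sprayed. Post: 1–4-leaf plants (2–18 cm) sprayed at the same time. Paddy: flooded, treated at 2-leaf stage. Formulation: non-phytotoxic solvent with surfactant. Greenhouse 13–15 days; visual 0–100 score relative to controls.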

velvetleaf = experiment: Test B pre-/postemergence herbicide test; format: in vivo, Abutilon theophrasti; conditions: for Velvetleaf plant response rating (0 to 100 scale) / Plant response rating, Velvetleaf: 0 = no effect, 100 = complete control, preemergence; for Velvetleaf plant response rating: postemergence
Summary of the method: (§3)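 Greenhouse pot assay with simultaneous preemergence (treated seed) and postemergence (2–18 cm seedlings) applications of surfactant-containing, non-phytotoxic solvent formulations. Response scored visually 13–15 days later on a 0–100 scale, 100 meaning complete control.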

cocklebur = experiment: Test B pre-/postemergence herbicide test; format: in vivo, Xanthium strumarium; conditions: for Cocklebur plant response rating (0 to 100 scale) / Plant response rating, Cocklebur: 0 = no effect, 100 = complete control, preemergence; for Plant response rating, Cocklebur / Cocklebur plant response rating: visual rating; for Cocklebur plant response rating: postemergence, scale 0 (no effect) to 100 (complete control)
Summary of the method: as §2

barnyardgrass [2] = experiment: Test B flooded paddy test; format: in vivo, Echinochloa crus-galli; conditions: 1000 g ai/ha, scale 0 to 100 (0 no effect, 100 complete control)
Summary of the method: as §1

ducksalad = experiment: Test B flooded paddy test; format: in vivo, Heteranthera limosa; conditions: 1000 g ai/ha, scale 0 to 100 (0 no effect, 100 complete control)
Summary of the method: as §1

corn = experiment: Test B pre-/postemergence herbicide test; format: in vivo, Zea mays; conditions: for Corn plant response rating (0 to 100 scale) / Plant response rating, Corn: 0 = no effect, 100 = complete control, preemergence; for Corn plant response rating: postemergence
Summary of the method: as §3

lambsquarters = experiment: Test B pre-/postemergence herbicide test; format: in vivo, Chenopodium album; conditions: for Lambsquarters plant response rating: postemergence
Summary of the method: as §3

Surinam grass = experiment: Test B pre-/postemergence herbicide test; format: in vivo, Urochloa decumbens; conditions: for Surinam Grass plant response rating (0 to 100 scale) / Plant response rating, Surinam Grass: 0 = no effect, 100 = complete control, preemergence; for Surinam Grass plant response rating: postemergence
Summary of the method: as §3

blackgrass = experiment: Test B postemergence herbicide test; format: in vivo, Alopecurus myosuroides; conditions: postemergence, visual rating, scale 0 (no effect) to 100 (complete control)
Summary of the method: as §1

rice [3] = experiment: Test B flooded paddy test; format: in vivo, Oryza sativa; conditions: 1000 g ai/ha, scale 0 to 100 (0 no effect, 100 complete control)
Summary of the method: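 Greenhouse test; postemergence application to plants at 1–4 leaves (2–18 cm); paddy species at 2 leaves; evaluated visually vs controls at 13–15 days; scale 0–100 (100 = complete control).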

giant foxtail = experiment: Test B pre-/postemergence herbicide test; format: in vivo, Setaria faberi; conditions: for Foxtail, Giant plant response rating (0 to 100 scale) / Plant response rating, Foxtail, Giant: 0 = no effect, 100 = complete control, preemergence; for Foxtail, Giant plant response rating: postemergence
Summary of the method: as §3

wheat = experiment: Test B postemergence herbicide test; format: in vivo, Triticum aestivum; parameters: key to Wheat plant response rating: 0 = no effect, 100 = complete control; conditions: postemergence
Summary of the method: (§4)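 Postemergence plants were sprayed with formulated test chemicals at 2 to 18 cm height (1- to 4-leaf stage); paddy species were grown to the 2-leaf stage. After 13 to 15 days in a greenhouse, injury was rated visually against untreated controls on a 0–100 scale (0 = no effect, 100 = complete control).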

pigweed = experiment: Test B pre-/postemergence herbicide test; format: in vivo, Amaranthus retroflexus; conditions: for Pigweed plant response rating: postemergence
Summary of the method: as §3

large crabgrass = experiment: Test B pre-/postemergence herbicide test; format: in vivo, Digitaria sanguinalis; conditions: for Crabgrass, Large plant response rating: postemergence
Summary of the method: as §3

rice [4] = experiment: Test B pre-/postemergence herbicide test; format: in vivo, Oryza sativa; conditions: 0 = no effect, 100 = complete control, preemergence; for Rice plant response rating (0 to 100 scale): 125 g ai/ha; for Plant response rating, Rice: 500 g ai/ha, visual rating
Summary of the method: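 Species tested were Echinochloa crus-galli, Ipomoea coccinea, Xanthium strumarium and Oryza sativa, treated both before emergence and at the 1- to 4-leaf stage; rice and barnyardgrass were also tested under flooding at 2 leaves. Greenhouse incubation lasted 13–15 days before visual 0–100 scoring.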

wild oat = experiment: Test B postemergence herbicide test; format: in vivo, Avena fatua; conditions: postemergence
Summary of the method: as §4

barnyardgrass [5] = experiment: Test B pre-/postemergence herbicide test; format: in vivo, Echinochloa crus-galli; conditions: for Barnyardgrass plant response rating (0 to 100 scale) / Plant response rating, Barnyardgrass: 0 = no effect, 100 = complete control, preemergence; for Plant response rating, Barnyardgrass / Barnyardgrass plant response rating: visual rating; for Barnyardgrass plant response rating: postemergence, scale 0 (no effect) to 100 (complete control)
Summary of the method: as §2

[6] = 125 g ai/ha, visual rating, scale 0 (no effect) to 100 (complete control)
[7] = 500 g ai/ha, visual rating, scale 0 (no effect) to 100 (complete control)
[8] = 125 g ai/ha, 0 = no effect, 100 = complete control, preemergence
[9] = 500 g ai/ha, visual rating, 0 = no effect, 100 = complete control, preemergence
[10] = 500 g ai/ha, scale 0 to 100, 0 is no effect, 100 is complete control

C=CCNC(=O)c1ccc(F)c(NC(=O)c2sc(CC)nc2C(C)(C)C)c1 [Compound 237]
Sedge, Umbrella plant response rating [1]: 40
Morningglory plant response rating (0 to 100 scale) (morningglory; 125 g ai/ha): 0
Plant response rating, Morningglory (morningglory; 500 g ai/ha, visual rating): 20
Morningglory plant response rating (morningglory; [6]): 20
Morningglory plant response rating (morningglory; [7]): 60
Velvetleaf plant response rating (0 to 100 scale) (velvetleaf; 125 g ai/ha): 30
Plant response rating, Velvetleaf (velvetleaf; 500 g ai/ha, visual rating): 60
Velvetleaf plant response rating (velvetleaf; [6]): 30
Velvetleaf plant response rating (velvetleaf; [7]): 50
Cocklebur plant response rating (0 to 100 scale) (cocklebur; 125 g ai/ha): 0
Plant response rating, Cocklebur (cocklebur; 500 g ai/ha): 0
Cocklebur plant response rating (cocklebur; 125 g ai/ha): 10
Cocklebur plant response rating (cocklebur; 500 g ai/ha): 40
Barnyardgrass plant response rating (barnyardgrass [2]): 60
Ducksalad plant response rating (ducksalad): 80
Corn plant response rating (0 to 100 scale) (corn; 125 g ai/ha): 0
Plant response rating, Corn (corn; 500 g ai/ha, visual rating): 20
Corn plant response rating (corn; [6]): 20
Corn plant response rating (corn; [7]): 40
Lambsquarters plant response rating (0 to 100 scale) (lambsquarters; [8]): 70
Plant response rating, Lambsquarters (lambsquarters; [9]): 90
Lambsquarters plant response rating (lambsquarters; [6]): 60
Lambsquarters plant response rating (lambsquarters; [7]): 70
Surinam Grass plant response rating (0 to 100 scale) (Surinam grass; 125 g ai/ha): 10
Plant response rating, Surinam Grass (Surinam grass; 500 g ai/ha, visual rating): 30
Surinam Grass plant response rating (Surinam grass; [6]): 20
Surinam Grass plant response rating (Surinam grass; [7]): 20
Blackgrass plant response rating (blackgrass; 125 g ai/ha): 0
Blackgrass plant response rating (blackgrass; 500 g ai/ha): 10
Rice plant response rating (rice [3]): 50
Foxtail, Giant plant response rating (0 to 100 scale) (giant foxtail; 125 g ai/ha): 0
Plant response rating, Foxtail, Giant (giant foxtail; 500 g ai/ha, visual rating): 40
Foxtail, Giant plant response rating (giant foxtail; [6]): 10
Foxtail, Giant plant response rating (giant foxtail; [7]): 20
Wheat plant response rating (wheat; [6]): 10
Wheat plant response rating (wheat; [7]): 20
Pigweed plant response rating (0 to 100 scale) (pigweed; [8]): 20
Plant response rating, Pigweed (pigweed; [9]): 70
Pigweed plant response rating (pigweed; [6]): 30
Pigweed plant response rating (pigweed; [7]): 60
Crabgrass, Large plant response rating (0 to 100 scale) (large crabgrass; [8]): 30
Plant response rating, Crabgrass, Large (large crabgrass; [9]): 90
Crabgrass, Large plant response rating (large crabgrass; [6]): 10
Crabgrass, Large plant response rating (large crabgrass; [7]): 20
Rice plant response rating (0 to 100 scale) (rice [4]): 0
Plant response rating, Rice (rice [4]): 30
Oat, Wild plant response rating (wild oat; [6]): 0
Oat, Wild plant response rating (wild oat; [7]): 20
Barnyardgrass plant response rating (0 to 100 scale) (barnyardgrass [5]; 125 g ai/ha): 20
Plant response rating, Barnyardgrass (barnyardgrass [5]; 500 g ai/ha): 50

CCN(CC)C(=O)c1cc(NC(=O)c2cc(C(C)(C)C)nn2CC)c(F)cc1F [Compound 253]
Sedge, Umbrella plant response rating [1]: 20
Morningglory plant response rating (0 to 100 scale) (morningglory; 125 g ai/ha): 0
Plant response rating, Morningglory (morningglory; 500 g ai/ha, visual rating): 0
Morningglory plant response rating (morningglory; [6]): 0
Morningglory plant response rating (morningglory; [10]): 30
Velvetleaf plant response rating (0 to 100 scale) (velvetleaf; 125 g ai/ha): 0
Plant response rating, Velvetleaf (velvetleaf; 500 g ai/ha, visual rating): 20
Velvetleaf plant response rating (velvetleaf; [6]): 10
Velvetleaf plant response rating (velvetleaf; [10]): 10
Cocklebur plant response rating (0 to 100 scale) (cocklebur; 125 g ai/ha): 0
Plant response rating, Cocklebur (cocklebur; 500 g ai/ha): 0
Cocklebur plant response rating (cocklebur; 125 g ai/ha): 10
Cocklebur plant response rating (cocklebur; 500 g ai/ha): 20
Barnyardgrass plant response rating (barnyardgrass [2]): 0
Ducksalad plant response rating (ducksalad): 60
Corn plant response rating (0 to 100 scale) (corn; 125 g ai/ha): 0
Plant response rating, Corn (corn; 500 g ai/ha, visual rating): 0
Corn plant response rating (corn; [6]): 0
Corn plant response rating (corn; [10]): 0
Lambsquarters plant response rating (0 to 100 scale) (lambsquarters; [8]): 0
Lambsquarters plant response rating (lambsquarters; [6]): 20
Lambsquarters plant response rating (lambsquarters; [10]): 30
Surinam Grass plant response rating (0 to 100 scale) (Surinam grass; 125 g ai/ha): 10
Plant response rating, Surinam Grass (Surinam grass; 500 g ai/ha, visual rating): 30
Surinam Grass plant response rating (Surinam grass; [6]): 0
Surinam Grass plant response rating (Surinam grass; [10]): 0
Blackgrass plant response rating (blackgrass; 125 g ai/ha): 20
Blackgrass plant response rating (blackgrass; 500 g ai/ha): 20
Rice plant response rating (rice [3]): 50
Foxtail, Giant plant response rating (0 to 100 scale) (giant foxtail; 125 g ai/ha): 0
Plant response rating, Foxtail, Giant (giant foxtail; 500 g ai/ha, visual rating): 30
Foxtail, Giant plant response rating (giant foxtail; [6]): 0
Foxtail, Giant plant response rating (giant foxtail; [10]): 0
Wheat plant response rating (wheat; [6]): 20
Wheat plant response rating (wheat; [10]): 30
Pigweed plant response rating (pigweed; [6]): 20
Pigweed plant response rating (pigweed; [10]): 30
Crabgrass, Large plant response rating (0 to 100 scale) (large crabgrass; [8]): 20
Crabgrass, Large plant response rating (large crabgrass; [6]): 0
Crabgrass, Large plant response rating (large crabgrass; [10]): 0
Rice plant response rating (0 to 100 scale) (rice [4]): 0
Plant response rating, Rice (rice [4]): 0
Oat, Wild plant response rating (wild oat; [6]): 20
Oat, Wild plant response rating (wild oat; [10]): 30
Barnyardgrass plant response rating (0 to 100 scale) (barnyardgrass [5]; 125 g ai/ha): 0
Plant response rating, Barnyardgrass (barnyardgrass [5]; 500 g ai/ha): 10
Barnyardgrass plant response rating (barnyardgrass [5]; 125 g ai/ha): 0
Barnyardgrass plant response rating (barnyardgrass [5]; 500 g ai/ha): 10
